Reference: ChEMBL document CHEMBL1126353, “Substituted benzamides with conformationally restricted side chains. 4. Hetero-azabicyclo[x.y.0] derivatives as gastric prokinetic agents” (1992)
Activity calls are given as the source filed them. The rule behind the calls is not given here.

Legend:
[1] = molecular target: Dopamine receptor (Rattus norvegicus) (UniProt P25115+P19020+P30729+P18901+P61169); assay: Dopamine receptor antagonist activity expressed as ability to inhibit apomorphine-induced climbing behavior in rat on subcutaneous administration.; type: functional, organism-based
Rattus norvegicus = assay: Prokinetic activity expressed as ability to increase intragastric pressure in rat on subcutaneous administration; type: functional
[2] = Ratio of ability to inhibit apomorphine induced climbing to that of increasing intragastric pressure in rats; type: functional
Canis familiaris = assay: Compound was tested for inhibiting apomorphine-induced emesis in dog up to a dose of 10 mg/kg when administered subcutaneously; E - compound found effective; type: functional, organism-based; design: dose 10 mg/kg; conditions: Canis lupus familiaris

ED50 [1] [mg/kg] | Structure (SMILES) | Activity (Rattus norvegicus) [mg/kg] | Ratio [2] | Activity (Canis familiaris)
> 10 | COc1cc(N)c(Cl)cc1C(=O)NC1CCN2CC[S+]([O-])CC2C1 (stereo in doubt; 21) [listing 1 of 2 here] |  |  | 
25 | COc1cc(N)c(Cl)cc1C(=O)NC1CCN2C(C)CCCC2C1 (stereo not drawn) [BRL-20627] | 0.5 | 50 | 
5 | COc1cc(N)c(Cl)cc1C(=O)NC1CCCN2CCSCC12 (stereo in doubt; 23) [listing 1 of 2 here] |  |  | 
10 | COc1cc(N)c(Cl)cc1C(=O)NC1CN2CCCCN2C1 | 0.5 | 20 | 
40 | COc1cc(N)c(Cl)cc1C(=O)NC1CCN2C(C)COCC2C1 (stereo not drawn) | 0.2 | 200 | 
30 | COc1cc(N)c(Cl)cc1C(=O)NC1CCCN2CCSCC12 (stereo in doubt; 24) [listing 1 of 2 here] |  |  | 
70 | COc1cc(N)c(Cl)cc1C(=O)NC1CCN2CCOCC2C1 (stereo in doubt; 14) [listing 1 of 2 here] |  |  | 
> 50 | COc1cc(N)c(Cl)cc1C(=O)NC1CN2CC=CCN2C1 | >1 |  | 
30 | COc1cc(N)c(Cl)cc1C(=O)NC1CCN2CCCCN2C1 (stereo not drawn) | 1 | 30 | 
> 25 | COc1cc(N)c(Cl)cc1C(=O)NC1CCCN2CCOCC12 (stereo in doubt; 18) [listing 2 of 2 here] |  |  | 
30 | COc1cc(N)c(Cl)cc1C(=O)NC1CCN2CCOCC2C1 (stereo in doubt; 15) [listing 2 of 2 here] |  |  | 
> 25 | COc1cc(N)c(Cl)cc1C(=O)NC1CCN2CCSCC2C1 (stereo not drawn) | 1 |  | Active
30 | COc1cc(N)c(Cl)cc1C(=O)NC1CCCN2CCOCC12 (stereo in doubt; 17) [listing 2 of 2 here] |  |  | 

The next lines start with the compound.

Structure (SMILES) | ED50 [1] [mg/kg] | Activity (Rattus norvegicus) [mg/kg] | Ratio [2] | Activity (Canis familiaris)
COc1cc(N)c(Cl)cc1C(=O)NC1CN2CCC(c3ccccc3)CN2C1 (stereo not drawn) | 5 | >1 |  | 
COc1cc(N)c(Cl)cc1C(=O)NC1CCN2CC[S+]([O-])CC2C1 (stereo in doubt; 21) [listing 2 of 2 here] |  | 5 |  | 
COc1cc(N)c(Cl)cc1C(=O)NC1CCCN2CCOCC12 (stereo in doubt; 18) [listing 1 of 2 here] |  | 1 |  | 
COc1cc(N)c(Cl)cc1C(=O)NC1CCN2CC[S+]([O-])CC2C1 (stereo in doubt; 22) [listing 1 of 2 here] |  | 1 |  | 
COc1cc(N)c(Cl)cc1C(=O)NC1CCCN2CCOCC12 (stereo in doubt; 17) [listing 1 of 2 here] |  | >5 |  | 
COc1cc(N)c(Cl)cc1C(=O)NC1CCCN2CCSCC12 (stereo in doubt; 24) [listing 2 of 2 here] |  | 1 | 30 | 
CCN(CC)CCNC(=O)c1cc(Cl)c(N)cc1OC [METOCLOPRAMIDE] | 0.8 | 1 | 0.8 | 
COc1cc(N)c(Cl)cc1C(=O)NC1CCN2CC[S+]([O-])CC2C1 (stereo in doubt; 22) [listing 2 of 2 here] |  |  |  | Active
COc1cc(N)c(Cl)cc1C(=O)NC1CCN2CCOCC2C1 (stereo in doubt; 15) [listing 1 of 2 here] |  | 1 | 30 | 
COc1cc(N)c(Cl)cc1C(=O)NC1CCCN2CCSCC12 (stereo in doubt; 23) [listing 2 of 2 here] |  | >5 |  | 
COc1cc(N)c(Cl)cc1C(=O)NC1CN2Cc3ccccc3CN2C1 | 10 | >1 |  | 
COc1cc(N)c(Cl)cc1C(=O)NC1CCN2CCOCC2C1 (stereo in doubt; 14) [listing 2 of 2 here] |  | 0.2 | 350 | 
